Consider 1 molecule from patent US20210106579A1, “AMELIORATION OF COGNITIVE AND MOTOR DEFICITS ASSOCIATED WITH ALZHEIMER'S” (Neuralstem, Inc., priority 2018, published 2021).

Assay [1] concerns 5XFAD mice. As to the kind of experiment: Barnes maze test (learning and memory retention) in Alzheimer's mouse model. It counts as in vivo. The settings on record: 30 mg/kg/day oral; for Memory retention (Barnes maze, retest after two days): 5XFAD mice. The procedure: (§1) A mouse model of Alzheimer's disease obtained from Jackson Laboratory was used in this study. […] Wild type control B6SJLF1/J mice were used. 5XFAD mice developed cognitive impairments at 4-5 months of age. Four groups of mice were employed, 15 mice per group, a wild type control administered vehicle; a wild type control administered NSI-189 as the phosphate salt administered orally at a level of 30 mg/kg per day and 5XFAD mice administered vehicle or administered NSI-189 as the phosphate salt orally also at 30 mg/kg/day (of the organic moiety). NSI-189 is of Formula 2 wherein R^1 is isoamyl. The treatment began at 15 weeks and was maintained for 12 weeks with measurements made after 6 weeks and 12 weeks.
The Barnes maze test is described in King, M. R., et al., J. Neurosc. Res. (supra). The Barnes maze consists of a brightly lit, circular, white platform with 20 holes with equidistant spacing around the periphery. An escape box is placed beneath one of the holes marked by a visual clue. Before testing begins, the mouse is placed in the center of the platform and allowed to explore until either it finds the escape box or five minutes has elapsed. The time to locate the escape box is then recorded at the end of the session, the mouse is left in, or placed in, the escape box for an additional minute.
This system is used to test both learning and memory. To test learning, the mouse was placed in the maze for five consecutive days to ascertain whether the time required to find the escape box was decreased, which would indicate learning. To test memory retention, a subsequent period of two days was allowed to elapse and the mouse was retested to ascertain whether a decreased time in finding the escape box was found.

The test system of assay [2] is 5XFAD mice. The assay is described as follows: Object recognition test (short term memory) in Alzheimer's mouse model. In kind it is in vivo. Conditions: 30 mg/kg/day oral, 6 weeks of treatment, FIG. 5. The procedure: as §1
The object recognition test is also described in King, M. R., et al. (supra). This is based on a concept that the mice will explore a novel object for a longer time than a familiar object. Two identical objects are placed equal distance from each other and from the side of a transparent box and mice are given 10 minutes to achieve 30 seconds of exploration of the two objects after which they are placed back in their home cage. […] The time that the mouse spends exploring the familiar and novel object is recorded and mice with normal cognitive function typically spend more time with a novel object.

The subject of assay [3] is 5XFAD mice. As to the kind of experiment: Learning Rota-Rod test (motor skills and learning) in Alzheimer's mouse model. Conditions: 30 mg/kg/day oral. It counts as in vivo. The procedure: as §1
The Rota-Rod test also is described in King, et al. (supra). Rota-Rod is marketed by Stoelting Company, Wood Dale, Ill. This is a rod that rotates accelerating from 4-40 rpm over five minutes and the amount of time spent on the rod before loss of balance is recorded over three trials. This measures both motor skills, and if conducted over a period of days, it measures learning.
(In general: In the rotarod test animals must keep their balance on a rotating rod.)

Assay [4] has as its system 5XFAD mice. The assay is described as follows: Anxiety: time spent on the edge of an inverted beaker. It counts as in vivo, mouse. Conditions: FIG. 8. The procedure:
as §1
The time spent on the edge of an inverted beaker is used to assess anxiety, and the lower the time the more the anxious the mouse.

Each structure is given as a SMILES string.

Take `CC(C)CCNc1ncccc1C(=O)N1CCN(Cc2ccccc2)CC1` [NSI-189]: the “Learning (Barnes maze)” value in assay [1] (5XFAD mice (7 month old), 12 weeks of treatment, FIG. 3) is on record as “amelioration of worsened learning deficit”. Moreover, the “Memory retention (Barnes maze, retest after two days)” value was “improved memory” in assay [1] (6 weeks of treatment, FIG. 2) and “improvement of memory retention” in assay [1] (12 weeks of treatment, FIG. 4). The “Learning (Barnes maze, time to find escape box over five consecutive days)” value in assay [1] (control and 5XFAD mice, 6 weeks of treatment, FIG. 1) is reported as “appeared not to affect the learning curve of either group”. In addition, in assay [2], the “Recognition index (object recognition test)” value is listed as “improved the recognition index of 5XFAD mice”. Also, the “Motor skill at the beginning and learning (time on Rota-Rod)” value in assay [3] (5XFAD mice, 6 weeks of treatment, FIG. 7) is “improves both the motor skill exhibited at the beginning and learning even over control”. Besides, in assay [3] (wild type control mice, statement covers the behavioural tests), the “Behavior of control mice” value is listed as “In no case did NSI-189 affect the behavior of control mice”. Further, the “Anxiety (time spent on the edge of an inverted beaker)” value in assay [4] (control and 5XFAD mice at 7 months (12 weeks of treatment)) was “partially reduced the anxiety in both”; in assay [4] (control and 5XFAD mice at five months (6 weeks of treatment)) it was “did not affect either group”.
